What was measured:
[1] = Determination of the HLB value; type: physicochemical; details: 5% strength dispersion/solution in water, visual comparison with emulsifiers of known HLB
Protocol: The HLB value is determined by preparing a 5% strength dispersion/solution of the substance to be tested, here the hydrophilic emollient, in water, and determining the solubility in water. The assessment takes place visually: clouding, solubility, degree of dispersion. The HLB value is ascertained through comparison with solutions of emulsifiers whose HLB value is known.

[2] = cited from earlier work

| Substance | HLB value (ascertained) [1] | HLB value according to manufacturer [2] |
| --- | --- | --- |
| polyglyceryl-3 caprate [TEGOSOFT PC 31] | HLB: 14 |  |
| PEG-7 glyceryl cocoate [Glycerox HE] |  | HLB: 11 |
| polyglyceryl-4 caprate [TEGOSOFT PC 41] | HLB: 16 |  |

Reference: US8283299B2, “Skin and hand cleaning compositions with hydrophilic emollients” (Evonik Stockhausen GmbH, priority 2007, dated 2012)
